Laboratory results reported in PubChem BioAssay (NCI).
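Protocol summary: plate cells (96-well), add compound at 5 concentrations, incubate 48 h, interpolate endpoints linearly. At the GI50, growth is halved. TGI marks complete inhibition of growth.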

Assays:
Assay in all cases: NCI-60 cell line screen, 48 h
[1] = test system: MDA-N
[2] = test system: SF-295 CNS
[3] = test system: M14 melanoma
[4] = test system: SF-268 CNS
[5] = test system: HCT-15 colon
[6] = test system: SN12C renal
[7] = test system: LOX IMVI melanoma
[8] = test system: OVCAR-3 ovarian
[9] = test system: RPMI-8226 leukemia

SMILES	TGI [1] [µM]	TGI [2] [µM]	TGI [3] [µM]	TGI [4] [µM]	TGI [5] [µM]	TGI [6] [µM]	TGI [7] [µM]	TGI [8] [µM]	TGI [9] [µM]	GI50 [2] [µM]	GI50 [3] [µM]	GI50 [4] [µM]	GI50 [5] [µM]	GI50 [6] [µM]	GI50 [7] [µM]	GI50 [9] [µM]
CC(=O)O[C@H]1C[C@@H](OC(C)=O)[C@@](C)(O)[C@@H]2[C@@H](OC(C)=O)[C@@]3(O)[C@H](/C=C(/CCl)[C@H]4O[C@H]4[C@@H](OC(C)=O)[C@@]12C)OC(=O)[C@@H]3C	> 25	> 25	> 25	> 25	> 25	> 25	> 25	> 25	> 25							
CON(C)C(=O)C(C)NC(=O)OC(C)(C)C (configuration not stated)	> 100	> 100	> 100	> 100	> 100	> 100		> 100	> 100							
CCN(CC)C(=S)SSCCO		> 100	27.5	37.1	38.4	32.2	46.3		39.5	33.5	14.2	19	17.9	17.4	19.9	14.4
FC(F)(F)c1cnc(N/N=C(/c2ccccc2)c2ccccn2)c(Cl)c1	> 100	11	15.7	21.8	33.7	> 100		11.7	> 100							
Nc1c(C(=O)c2ccccc2)nnc2ccccc12			> 100	> 100	> 100		> 100		> 100							
CC(=O)O[C@H]1C[C@H]2[C@@H]([C@H](OC(C)=O)C[C@@H]3CC4(CC[C@@]32C)OOC2(CCCCC2)OO4)[C@@H]2CC[C@H]([C@H](C)CCC(=O)O)[C@@]12C	26.9	19.1	26.9	26.8	17	20.7	15.8	37.2	20.7							
Cc1cc(OC(=O)Nc2ccc(Cl)cc2)ccc1C(=S)Nc1ccccc1	> 100	> 100	> 100	> 100	> 100	> 100	> 100	> 100	> 100							
C=C1C(=O)O[C@@H]2[C@H]1C[C@H](I)[C@@]1(C)CC[C@H](O1)[C@](C)(I)CCCC(C)[C@@H]2O (some centres not stated)	9.57	31.8	19.4	27.2	4.57	17.7	2.59	8.09	9.3							
Brc1ccc(-c2nc(-c3ccc(Br)cc3)n(-c3ccccc3)n2)cc1	> 100	> 100	> 100	> 100	> 100	> 100	> 100	> 100								
CC(C)CCCC(C)[C@H]1CCC2[C@@H]3CCC4Cc5nc6c(nc5C[C@]4(C)C3CC[C@@]21C)CC1CC[C@@H]2C(CC[C@@]3(C)C2CC[C@@H]3O)[C@@]1(C)C6 (some centres not stated)	> 100	> 100	> 100	> 100	> 100	> 100	> 100	> 100	> 100							
CCN(CC)Cc1ccc(Nc2c3ccccc3nc3ccccc23)cc1	3.23	10.9	3.15	9.38	2.56	7.66	3.3	12.8								
Cn1cnnc1SC(F)(F)c1nc2ccccc2o1	> 100	> 100	> 100	> 100	> 100	> 100		> 100	> 100							
CC(=O)c1sc2c(c1O)c(=O)n(-c1ccccc1)c(=S)n2-c1ccccc1	> 100	> 100	> 100	> 100	> 100	> 100	> 100	> 100	> 100							
O=C(/C=C/c1ccc(Cl)cc1)c1ccc(Cl)s1	90.2	> 100	> 100	> 100	> 100	> 100	26.2	> 100	80.1							
C=CC1(O)CCCC=C1COCc1ccccc1 (configuration not stated)	> 100	> 100	> 100	> 100	> 100	> 100	40.7		68.3							
CCOP(=O)(/C=C/n1cnc2c(=O)n(C(C)=O)c(N)nc21)OCC	> 100	> 100	> 100	> 100	> 100	> 100	> 100	> 100	> 100							
CC(C)=NNc1ncnc2nc[nH]c12	> 100	> 100	> 100	> 100	> 100	> 100	> 100	40.1	> 62							
COc1cc(S(=O)(=O)Nc2ccc(-c3csc(/N=C\c4cccs4)n3)cc2)ccc1Cl	> 100	> 100	> 100	> 100	> 100	> 100	> 100	> 100	> 100							
COC1(c2ccccc2)NC(=S)NN=C1c1ccccc1 (configuration not stated)	45	99.3	> 100	> 100	64.2	60.8	> 100	84.6	> 100							
O=C(/C=C/c1cccs1)c1ccc([N+](=O)[O-])cc1	> 100	> 100	> 100	> 100	> 100	> 100	> 100		> 100							
CC(=O)N1c2ccccc2[C@H]2CCc3c([nH]c4ccccc34)[C@H]21	49.3	74.4	30.9	52.3	31.6	27.5	31.8	31.6	43.5							
O=C(c1ccccc1)c1ccc2nc3n(c2c1)C(c1c(Cl)cccc1Cl)SC3 (configuration not stated)	3.84	> 26.6	16.9	> 100	> 100	> 68.7	31.6	> 100	> 74.7							
